Source: patent US20260130395A1, “Water Dispersible Botanical Compositions” (Aquila Black Limited, priority 2021, published 2026)

Assay: Stability of cannabinoid compounds and Vitamin E components in Beverage 2 (AB Red) by LCMSMS
Format: physicochemical

SMILES: CCCCCc1cc(O)c2c(c1)OC(C)(C)c1ccc(C)cc1-2 [CBN, cannabinol]
- Stability of Plant-Derived Cannabinoid Compounds in AB Red (stored at 8° C., 0 days): 2.81 µg/mL
- Stability of Plant-Derived Cannabinoid Compounds in AB Red (stored at 8° C., 1 days): 2.82 µg/mL
- Stability of Plant-Derived Cannabinoid Compounds in AB Red (stored at 8° C., 2 days): 2.74 µg/mL
- Stability of Plant-Derived Cannabinoid Compounds in AB Red (stored at 8° C., 3 days): 2.83 µg/mL
- Stability of Plant-Derived Cannabinoid Compounds in AB Red (stored at 8° C., 5 days): 2.78 µg/mL
- Stability of Plant-Derived Cannabinoid Compounds in AB Red (stored at 8° C., 8 days): 2.80 µg/mL
- Stability of Plant-Derived Cannabinoid Compounds in AB Red (stored at 8° C., 9 days): 2.74 µg/mL
- Stability of Plant-Derived Cannabinoid Compounds in AB Red (stored at 8° C., 10 days): 2.79 µg/mL
- Stability of Plant-Derived Cannabinoid Compounds in AB Red (stored at 8° C., 11 days): 2.73 µg/mL
- Stability of Plant-Derived Cannabinoid Compounds in AB Red (stored at 8° C., 12 days): 2.76 µg/mL
- Stability of Plant-Derived Cannabinoid Compounds in AB Red (stored at 8° C., 15 days): 2.77 µg/mL
- Stability of Plant-Derived Cannabinoid Compounds in AB Red (stored at 8° C., 16 days): 2.83 µg/mL
- Stability of Plant-Derived Cannabinoid Compounds in AB Red (stored at 8° C., 17 days): 2.80 µg/mL
- Stability of Plant-Derived Cannabinoid Compounds in AB Red (stored at 8° C., 18 days): 2.78 µg/mL
- Stability of Plant-Derived Cannabinoid Compounds in AB Red (stored at 8° C., 19 days): 2.78 µg/mL
- Stability of Plant-Derived Cannabinoid Compounds in AB Red (stored at 8° C., 22 days): 2.73 µg/mL
- Stability of Plant-Derived Cannabinoid Compounds in AB Red (stored at 8° C., 23 days): 2.79 µg/mL
- Stability of Plant-Derived Cannabinoid Compounds in AB Red (stored at 8° C., 24 days): 2.76 µg/mL
- Stability of Plant-Derived Cannabinoid Compounds in AB Red (stored at 8° C., 25 days): 2.83 µg/mL
- Stability of Plant-Derived Cannabinoid Compounds in AB Red (stored at 8° C., 26 days): 2.79 µg/mL
- Stability of Plant-Derived Cannabinoid Compounds in AB Red (stored at 8° C., 29 days): 2.77 µg/mL
- Stability of Plant-Derived Cannabinoid Compounds in AB Red (stored at 8° C., 30 days): 2.77 µg/mL
- Stability of Plant-Derived Cannabinoid Compounds in AB Red (stored at 8° C., 60 days): 2.73 µg/mL
- Stability of Plant-Derived Cannabinoid Compounds in AB Red (stored at 8° C., 90 days): 2.80 µg/mL
- Stability of Plant-Derived Cannabinoid Compounds in AB Red (stored at 8° C., 120 days): 2.69 µg/mL
- Stability of Plant-Derived Cannabinoid Compounds in AB Red (stored at 8° C., 150 days): 2.69 µg/mL
- Stability of Plant-Derived Cannabinoid Compounds in AB Red (stored at 8° C., 180 days): 2.74 µg/mL
- Stability of Plant-Derived Cannabinoid Compounds in AB Red (stored at 8° C., 210 days): 2.69 µg/mL
- Stability of Plant-Derived Cannabinoid Compounds in AB Red (stored at 8° C., 240 days): 2.74 µg/mL
- Stability of Plant-Derived Cannabinoid Compounds in AB Red (stored at 8° C., 270 days): 2.76 µg/mL
- Stability of Plant-Derived Cannabinoid Compounds in AB Red (stored at 8° C., 300 days): 2.75 µg/mL
- Stability of Plant-Derived Cannabinoid Compounds in AB Red (stored at 8° C., 330 days): 2.71 µg/mL
- Stability of Plant-Derived Cannabinoid Compounds in AB Red (stored at 8° C., 360 days): 2.69 µg/mL
- Stability of Plant-Derived Cannabinoid Compounds in AB Red (stored at 8° C., 390 days): 2.72 µg/mL
- Stability of Plant-Derived Cannabinoid Compounds in AB Red (stored at 8° C., 420 days): 2.69 µg/mL
- Stability of Plant-Derived Cannabinoid Compounds in AB Red (stored at 8° C., 450 days): 2.71 µg/mL
- Stability of Plant-Derived Cannabinoid Compounds in AB Red (stored at 8° C., 480 days): 2.66 µg/mL
- Stability of Plant-Derived Cannabinoid Compounds in AB Red (stored at 8° C., 510 days): 2.62 µg/mL
- Stability of Plant-Derived Cannabinoid Compounds in AB Red (stored at 8° C., 540 days): 2.60 µg/mL
- Stability of Plant-Derived Cannabinoid Compounds in AB Red (stored at 8° C., 570 days): 2.58 µg/mL
- Stability of Plant-Derived Cannabinoid Compounds in AB Red (stored at 21-25° C., 0 days): 2.81 µg/mL
- Stability of Plant-Derived Cannabinoid Compounds in AB Red (stored at 21-25° C., 1 days): 2.73 µg/mL
- Stability of Plant-Derived Cannabinoid Compounds in AB Red (stored at 21-25° C., 2 days): 2.83 µg/mL
- Stability of Plant-Derived Cannabinoid Compounds in AB Red (stored at 21-25° C., 3 days): 2.78 µg/mL
- Stability of Plant-Derived Cannabinoid Compounds in AB Red (stored at 21-25° C., 5 days): 2.71 µg/mL
- Stability of Plant-Derived Cannabinoid Compounds in AB Red (stored at 21-25° C., 8 days): 2.74 µg/mL
- Stability of Plant-Derived Cannabinoid Compounds in AB Red (stored at 21-25° C., 9 days): 2.72 µg/mL
- Stability of Plant-Derived Cannabinoid Compounds in AB Red (stored at 21-25° C., 10 days): 2.73 µg/mL
- Stability of Plant-Derived Cannabinoid Compounds in AB Red (stored at 21-25° C., 11 days): 2.83 µg/mL
- Stability of Plant-Derived Cannabinoid Compounds in AB Red (stored at 21-25° C., 12 days): 2.70 µg/mL
- Stability of Plant-Derived Cannabinoid Compounds in AB Red (stored at 21-25° C., 15 days): 2.77 µg/mL
- Stability of Plant-Derived Cannabinoid Compounds in AB Red (stored at 21-25° C., 16 days): 2.81 µg/mL
- Stability of Plant-Derived Cannabinoid Compounds in AB Red (stored at 21-25° C., 17 days): 2.74 µg/mL
- Stability of Plant-Derived Cannabinoid Compounds in AB Red (stored at 21-25° C., 18 days): 2.80 µg/mL
- Stability of Plant-Derived Cannabinoid Compounds in AB Red (stored at 21-25° C., 19 days): 2.70 µg/mL
- Stability of Plant-Derived Cannabinoid Compounds in AB Red (stored at 21-25° C., 22 days): 2.70 µg/mL
- Stability of Plant-Derived Cannabinoid Compounds in AB Red (stored at 21-25° C., 23 days): 2.82 µg/mL
- Stability of Plant-Derived Cannabinoid Compounds in AB Red (stored at 21-25° C., 24 days): 2.78 µg/mL
- Stability of Plant-Derived Cannabinoid Compounds in AB Red (stored at 21-25° C., 25 days): 2.84 µg/mL
- Stability of Plant-Derived Cannabinoid Compounds in AB Red (stored at 21-25° C., 26 days): 2.70 µg/mL
- Stability of Plant-Derived Cannabinoid Compounds in AB Red (stored at 21-25° C., 29 days): 2.78 µg/mL
- Stability of Plant-Derived Cannabinoid Compounds in AB Red (stored at 21-25° C., 30 days): 2.77 µg/mL
- Stability of Plant-Derived Cannabinoid Compounds in AB Red (stored at 21-25° C., 60 days): 2.78 µg/mL
- Stability of Plant-Derived Cannabinoid Compounds in AB Red (stored at 21-25° C., 90 days): 2.75 µg/mL
- Stability of Plant-Derived Cannabinoid Compounds in AB Red (stored at 21-25° C., 120 days): 2.77 µg/mL
- Stability of Plant-Derived Cannabinoid Compounds in AB Red (stored at 21-25° C., 150 days): 2.75 µg/mL
- Stability of Plant-Derived Cannabinoid Compounds in AB Red (stored at 21-25° C., 180 days): 2.70 µg/mL
- Stability of Plant-Derived Cannabinoid Compounds in AB Red (stored at 21-25° C., 210 days): 2.70 µg/mL
- Stability of Plant-Derived Cannabinoid Compounds in AB Red (stored at 21-25° C., 240 days): 2.73 µg/mL
- Stability of Plant-Derived Cannabinoid Compounds in AB Red (stored at 21-25° C., 270 days): 2.73 µg/mL
- Stability of Plant-Derived Cannabinoid Compounds in AB Red (stored at 21-25° C., 300 days): 2.70 µg/mL
- Stability of Plant-Derived Cannabinoid Compounds in AB Red (stored at 21-25° C., 330 days): 2.75 µg/mL
- Stability of Plant-Derived Cannabinoid Compounds in AB Red (stored at 21-25° C., 360 days): 2.72 µg/mL
- Stability of Plant-Derived Cannabinoid Compounds in AB Red (stored at 21-25° C., 390 days): 2.65 µg/mL
- Stability of Plant-Derived Cannabinoid Compounds in AB Red (stored at 21-25° C., 420 days): 2.64 µg/mL
- Stability of Plant-Derived Cannabinoid Compounds in AB Red (stored at 21-25° C., 450 days): 2.68 µg/mL
- Stability of Plant-Derived Cannabinoid Compounds in AB Red (stored at 21-25° C., 480 days): 2.58 µg/mL
- Stability of Plant-Derived Cannabinoid Compounds in AB Red (stored at 21-25° C., 510 days): 2.66 µg/mL
- Stability of Plant-Derived Cannabinoid Compounds in AB Red (stored at 21-25° C., 540 days): 2.65 µg/mL
- Stability of Plant-Derived Cannabinoid Compounds in AB Red (stored at 21-25° C., 570 days): 2.58 µg/mL
